Among the data in patent US8846672B2, “Imidazopyridines as respiratory syncytial virus antiviral agents” (Janssen R&D Ireland, priority 2010, dated 2014) are EC50 and CC50 values, retold here.

The subject of one data set is RSV. The experiment in a line: RSV inhibitory activity (WT activity). Type of data set: cell-based, respiratory syncytial virus.
Where [1] appears, read: human respiratory syncytial virus, Table 1, wild-type RSV.
Setting [2] is: human respiratory syncytial virus, Table 2, wild-type RSV.

For `O=c1n(Cc2nc3cc(Cl)ccn3c2CCCCO)c2cnccc2n1C1CC1` [Compound P1, 3-((7-chloro-3-(4-hydroxybutyl)imidazo[1,2-a]pyridin-2-yl)methyl)-1-cyclopropyl-1H-imidazo[4,5-c]pyridin-2(3H)-one], in the data set on RSV (setting [1]), the midpoint of the response, the EC50, lay at 0.4 nM. Further, the CC50 in the data set “Toxicity (CC50)” was over 9840 nM.
`COCCCc1c(Cn2c(=O)n(C3CC3)c3ccncc32)nc2cc(Cl)ccn12` [Compound P2] displayed an EC50 with RSV (Table 1, wild-type RSV) of 3.8 nM.
The compound `O=c1n(Cc2nc3ccccn3c2CCC2CC2)c2cnccc2n1C1CC1` [Compound P3, 1-cyclopropyl-3-((3-(2-cyclopropylethyl)imidazo-[1,2-a]pyridin-2-yl)methyl)-1H-imidazo[4,5-c]pyridin-2(3H)-one] showed an EC50 in the data set on RSV (setting [1]) of 5.25 nM. This compound also showed a cytotoxic concentration (CC50) in the data set “Toxicity (CC50)” of over 9840 nM.
For `O=c1n(Cc2nc3ccccn3c2CCCCO)c2cnccc2n1C1CC1` [Compound P5], the midpoint of the response in the data set with RSV (Table 1, wild-type RSV), the EC50, lay at 21.8 nM.
`COCC#Cc1c(Cn2c(=O)n(C3CC3)c3ccncc32)nc2cc(Cl)ccn12` [Compound P6]: the EC50 in the data set with RSV (Table 1, wild-type RSV) is 170 nM.
Take `O=c1n(Cc2nc3cc(CCCCO)ccn3c2CCCCO)c2cnccc2n1C1CC1` [Compound P10]: the concentration for a half-maximal effect (EC50) in the data set on RSV (Table 1, wild-type RSV) is over 9840 nM.
In the case of `CC(C)CC#Cc1c(Cn2c(=O)n(C(C)C)c3ccccc32)nc2ccccn12` [Compound P11], it took 11300 nM to reach a half-maximal effect in the data set with RSV (Table 1, wild-type RSV) (EC50).
`CC(C)n1c(=O)n(Cc2cn3ccccc3n2)c2ccccc21` [Compound P12] displayed an EC50 in the data set on RSV (Table 1, wild-type RSV) of 16100 nM.
In the data set with RSV (Table 1, wild-type RSV), `O=c1n(Cc2cn3ccccc3n2)c2cnccc2n1C1CC1` [Compound P13] displayed a half-maximal effective concentration (EC50) of 51500 nM.
The same measure, in the same setting: as for `O=c1n(Cc2cn3ccncc3n2)c2cnccc2n1C1CC1` [Compound P14], the figure is over 98400 nM.
The compound `CC(C)(C)C=Cc1c(Cn2c(=O)n(C3CC3)c3ccncc32)nc2cnccn12` [Compound P15] returned an EC50 with RSV (Table 2, wild-type RSV) of 318 nM.
For `CC(C)(C)CCc1c(Cn2c(=O)n(C3CC3)c3ccncc32)nc2cnccn12` [Compound P16], in the data set on RSV (Table 2, wild-type RSV), the concentration giving a half-maximal response (EC50) came to 172 nM.
`O=c1n(Cc2nc3cnccn3c2CCCCO)c2cnccc2n1C1CC1` [Compound P17, 1-cyclopropyl-3-((3-(4-hydroxybutyl)imidazo[1,2-a]pyrazin-2-yl)methyl)-1H-imidazo[4,5-c]pyridin-2(3H)-one] had a 50% effective concentration (EC50) in the data set on RSV (setting [2]) of 276 nM.
Compound `O=c1n(Cc2nc3cnccn3c2CCCCF)c2cnccc2n1C1CC1` [Compound P18, 1-cyclopropyl-3-((3-(4-fluorobutyl)imidazo[1,2-a]pyrazin-2-yl)methyl)-1H-imidazo[4,5-c]pyridin-2(3H)-one] came in with an EC50 in the data set on RSV (setting [2]) of 544 nM.
With `COC(=O)C=Cc1c(Cn2c(=O)n(C3CC3)c3ccncc32)nc2cc(Cl)ccn12` [Compound P20], the concentration giving a half-maximal response (EC50) in the data set on RSV (Table 2, wild-type RSV) was found to be 2.97 nM.
Same read-out and setting: as for `N#CC=Cc1c(Cn2c(=O)n(C3CC3)c3ccncc32)nc2cc(Cl)ccn12` [Compound P21], the figure is 13.6 nM; as for `CN(C)C(=O)CCc1c(Cn2c(=O)n(C3CC3)c3ccncc32)nc2cc(Cl)ccn12` [Compound P23], 2.61 nM; as for `CN(C)C(=O)CCc1c(Cn2c(=O)n(C3CC3)c3ccncc32)nc2ccccn12` [Compound P25], 15.3 nM.
As for `O=C(CCc1c(Cn2c(=O)n(C3CC3)c3ccncc32)nc2cc(Cl)ccn12)N1CCOCC1` [Compound P26, 3-((7-chloro-3-(3-morpholino-3-oxopropyl)imidazo[1,2-a]pyridin-2-yl)methyl)-1-cyclopropyl-1H-imidazo[4,5-c]pyridin-2(3H)-one], the 50% effective concentration (EC50) in the data set with RSV (setting [2]) came to 2.19 nM.
As for `O=C(CCc1c(Cn2c(=O)n(C3CC3)c3ccncc32)nc2ccccn12)N1CCOCC1` [Compound P27, 1-cyclopropyl-3-((3-(3-morpholino-3-oxopropyl)imidazo[1,2-a]pyridin-2-yl)methyl)-1H-imidazo[4,5-c]pyridin-2(3H)-one], the EC50 with RSV (setting [2]) amounted to 55.8 nM.
